Laboratory results published in patent US20080255121A1, “Combination Drug for Treating Autoimmune Disease” (DAINIPPON SUMITOMO PHARMA CO., LTD., priority 2004, published 2008).
Where “and” joins values, the source holds several entries; their conditions need not be identical. Equal entries are not always repeated.

Tests used:
[1] = system: adjuvant arthritis rats; conditions: reported in Patent Documents 3, 4 and Non-Patent Documents 3 to 5; cited from earlier work
[2] = target: T1, CaMKIIα derived from rat (Rattus norvegicus, UniProt P11275); assay: Examination of CaMKII inhibitory activity (1), phosphorylation of Autocamtide-2; assay type: biochemical
T1 construct: purchased Santa Cruz, Inc
T1 sequence (P11275 whole entry): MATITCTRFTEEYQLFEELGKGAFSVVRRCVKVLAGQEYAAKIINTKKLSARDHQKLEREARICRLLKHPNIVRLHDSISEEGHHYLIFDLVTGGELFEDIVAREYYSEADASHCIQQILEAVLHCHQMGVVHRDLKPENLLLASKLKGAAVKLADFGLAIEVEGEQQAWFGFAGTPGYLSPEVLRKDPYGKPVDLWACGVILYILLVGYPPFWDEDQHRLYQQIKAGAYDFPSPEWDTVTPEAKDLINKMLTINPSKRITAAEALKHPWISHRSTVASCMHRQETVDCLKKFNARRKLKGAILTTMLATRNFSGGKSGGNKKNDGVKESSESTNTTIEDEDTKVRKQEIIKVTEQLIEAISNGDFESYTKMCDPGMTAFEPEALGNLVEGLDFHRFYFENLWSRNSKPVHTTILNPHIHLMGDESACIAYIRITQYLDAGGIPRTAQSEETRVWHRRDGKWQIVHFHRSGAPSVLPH
Procedure: Test substances were dissolved in DMSO and diluted to various concentrations with a buffer solution (50 mM Tris-HCl: pH 7.5, 10 mM MgCl2, 1 mM Dithiothreitol (DTT)) (all of them are available from Nacalai Tesque, Inc.) for CaMKII reaction. CaMKIIα (final concentration 0.75 μg/ml) (Santa Cruz, Inc.) derived from rat was mixed with Autocamtide-2® (40 μM) (CALBIOCHEM Company) dissolved in CaMKII reaction buffer solution in the presence of the test substance and with CaMKII activation buffer solution (1 mMCaCl2, 1 μM calmodulin) (Nacalai Tesque, Inc.) and the reaction was started by further adding ATP (50 μM) (Nacalai Tesque, Inc.). The reaction was performed at 30° C. for five minutes and then SDS-PAGE sample buffer solution was added and the reaction was terminated by boiling for five minutes. Proteins in the reaction mixture were separated by 15% SDS-PAGE and blotted onto a PVDF membrane. Phosphorus taken in by Autocamtide-2 was reacted with an anti-phosphorylated serine/threonine antibody (Santa Cruz, Inc.) and quantified by ECL system (Amersham, Inc.) and NIH Image (downloadable from http://rsb.info.nih.gov/nih-image/).

[3] = system: mouse type III allergy reaction; conditions: reported in Patent Document 4; cited from earlier work
[4] = system: adjuvant-induced arthritis rats; assay: Adjuvant-induced arthritis, therapeutic and prophylactic model; assay type: in vivo, rat; conditions: Compound (I) 2.5 to 80 mg/kg
Procedure: The adjuvant-induced arthritis model is a representative chronic inflammation model caused in rats, and it is widely used for pharmacological evaluation of antiinflammatory drugs and antirheumatic drugs. Accordingly, effects of Compound (I) and Compound (II) were examined in both therapeutic and prophylactic model. In the therapeutic model, the difference of the volume of a hind leg before and after the dosed period was calculated to examine edema suppression effect by the drug administration and the change of edema volume was examined. In the prophylactic model, the volume of a hind paw was measured over time during the dosed period and the effect of the drug for a long term period was examined. Although the hind paw volume or the edema volume was used as the index of efficacy evaluation, the edema volume means the increment from the normal volume of the hind paw which was not sensitized with the adjuvant, and therefore, the both indices can be used as approximately the same meaning.
A liquid paraffin suspension (1 mg/200 μl) of Mycobacterium butyricum (adjuvant) was subcutaneously injected at the tarsal part of the right hind paw of SD or Lewis rats (both male, six-week old) to cause arthritis. In the therapeutic model, 0.5% methylcellulose suspension of Compound (I) or Compound (II) which was prepared so that the dose was 1 ml per 100 g body weight was orally administered once a day for consecutive five days from the 17th day after the injection of the adjuvant. An indomethacin suspension prepared in the similar way was administered as the positive control. The volume of the hind paws was measured respectively for the right and the left by water replacement method just before the administration and in five hours after the last administration and the difference in the values just before the administration and in five hours after the last administration was calculated and assumed as the change in the edema volume. In the prophylatic model, the compounds were administered once a day for consecutive 21 days after the day when the adjuvant was injected. The volume of the right and left hind paws was measured by water replacement method every other day. In the prophylactic model of Compound (II), a suspension of D-penicillamine, an antirheumatic drug, was administered in the same way as a control.

[5] = system: experimental allergic encephalomyelitis mice; assay: Experimental allergic encephalomyelitis, Compound (I); assay type: in vivo
Description: The severity of the condition was indicated as a score (disease score) according to the following criteria.
0.5: Slight paralysis of tail
2: Light paralysis of hind paw
3: Medium to intense paralysis of hind paw or light forelimb paralysis
4: Complete paralysis of hind paw or medium to intense paralysis of forelimb
5: Paralysis of four limbs or toward death period
In the prednisolone administered group as a positive control, prednisolone was suspended in 0.5% methylcellulose solution to prepare a liquid of 0.3 mg/ml for administration and 0.1 ml per 10 g mouse weight was orally administered. In a control group, only 0.5% methylcellulose solution was […] administered. The administration was started on the sensitization day and carried out once a day for consecutive 40 days.

[6] = system: adjuvant-induced arthritis rats; assay: Combination effect on adjuvant-induced arthritis (Example 19); assay type: in vivo, rat; conditions: only methotrexate 0.060 mg/kg oral once a day 17 days
Procedure: Combination effect for rat adjuvant-induced arthritis was examined in the same manner as in Example 17.
The volume of the left hind paw was measured by water replacement method just before the administration and after the last administration, and AUC (the area under the curve formed by plotting the difference of the value at the time of grouping from the value of each time point during the administration period against the time) of the increased volume of the left hind paw was determined. Joint destruction of the right hind paw (injected paw) and the left hind paw (non-injection paw) can be measured by X-ray and this can be also used as the index to evaluate the combination effect.

[7] = system: adjuvant-induced arthritis rats; assay: Combination effect on adjuvant-induced arthritis, joint destruction score by soft X-ray (Example 20); assay type: in vivo, rat; conditions: Compound (I) 40 mg/kg and/or methotrexate 0.06 mg/kg, maximum 12
Procedure: Combination effect for adjuvant-induced arthritic rats was examined in the same manner as in Example 17.
Euthanasia was carried out for all the rats by aspiration of high concentration carbon dioxide after the last administration. Both the hind paws were cut off at the middle point of […]. Both the hind paws were fixed with 10% neutral buffered formalin liquid. […] The degree of joint destruction was recorded with a score. Observed sites were three points of the tibia, calcaneum and tarsal bone, and the possible maximum score was 12.
1: Minimum destruction of joints and bones and new formation of cartilages
2: Mild destruction of joints and bones and new formation and light ossification of cartilages
3: Moderate destruction of joints and bones and ossification
4: Severe destruction and deformation of joints and bones and intense ossification

SMILES: CNc1nc(C(C)c2ccc(-c3ccccc3)c(F)c2)cs1 (stereo not shown) [Compound (II), 4-[1-(2-fluorobiphenyl-4-yl)ethyl]-2-(methylamino)thiazole]
- effects on adjuvant arthritis rats [1]: anti-arthritis effects
- Inhibition rate (%) ([2]; Concentration 0.1 μm): 45%
- Inhibition rate (%) ([2]; Concentration 1 μm): 62%
- Inhibition rate (%) ([2]; Concentration 10 μm): 92%
- edema in mouse type III allergy reaction tests [3]: inhibitory effects on edema
- hind paw volume / edema volume ([4]; prophylactic model, oral once a day for 21 days, Compound (II) 50 mg/kg, FIGS. 8 and 9): remarkable edema suppressing effect
- change of edema volume of hind paw ([4]; therapeutic model, oral once a day for five days from 17th day, Compound (II) 10 to 50 mg/kg, FIGS. 6 and 7): remarkable edema suppressing effect

SMILES: C[C@]12C=CC(=O)C=C1CC[C@@H]1[C@@H]2[C@@H](O)C[C@@]2(C)[C@H]1CC[C@]2(O)C(=O)CO [Prednisolone, prednisolone, reference compound]
- weight gain (natural accruement of weight by growth) ([5]; Compound (I) 20 to 80 mg/kg, prednisolone 3 mg/kg, oral once a day 40 days, FIG. 14): strongly suppressed natural accruement of weight by growth
- Death Rate ([5]; Dose 3 mg/kg oral once a day 40 days): 0/10
- Onset Rate ([5]; Dose 3 mg/kg oral once a day 40 days, 3 mg/kg): 2 of 10 and 2/10

SMILES: CC(c1ccc(-c2ccccc2)c(F)c1)c1cc(/N=C(/N)N(C)C)on1.Cl (stereo not shown) [Compound (Ib), N′-{3-[1-(2-fluorobiphenyl-4-yl)-ethyl]-isoxazol-5-yl}-N,N-dimethyl-guanidine hydrochloride]
- Inhibition rate (%) ([2]; Concentration 0.1 μm): 13%
- Inhibition rate (%) ([2]; Concentration 1 μm): 42%
- Inhibition rate (%) ([2]; Concentration 10 μm): 71%

SMILES: CN(Cc1cnc2nc(N)nc(N)c2n1)c1ccc(C(=O)N[C@@H](CCC(=O)O)C(=O)O)cc1 [methotrexate, reference compound]
- increased volume and onset ratio of left hind paw [6]: onset suppressing effect and edema suppressing effect
- joint destruction score of the left hind paw, representative individual which showed an average score in the group ([7]; control score 3): 2
- joint destruction score of the right hind paw, representative individual which showed an average score in the group ([7]; control score 10): 9

SMILES: CCN/C(N)=N/c1cc(C(C)c2ccc(-c3ccccc3)c(F)c2)no1.Cl (stereo not shown) [Compound (Ic), N-ethyl-N′-{3-[1-(2-fluorobiphenyl-4-yl)-ethyl]-isoxazol-5-yl}-guanidine hydrochloride]
- Inhibition rate (%) ([2]; Concentration 0.1 μm): 11%
- Inhibition rate (%) ([2]; Concentration 1 μm): 36%
- Inhibition rate (%) ([2]; Concentration 10 μm): 68%
